# What was measured:
# [1] = test system: cancer cell line Capan-2 (pancreas adenocarcinoma, DSMZ, ACC-245); assay: XTT test of antitumor efficacy in vitro, Capan-2; assay type: cell-based; conditions: 72 hours exposure
# Excerpt: (§1) XTT method was used in the in vitro experiments. We tested mother platinum (IV) complex TU31 (where X=Cl^−), three new platinum (IV) complexes according to the invention, where X=ClCH2COO^− (complex TU105), F3CCOO^− (complex TU106) and NO3^− (complex TU113), reference platinum (II) complex Oxaliplatin and reference platinum (IV) complex Satraplatin. Two cancer cell lines of heavy-to-treat tumors Capan-2 (pancreas adenocarcinoma) and PC-3 (prostate carcinoma) were used in XTT tests. The obtained results are summarized in the form of IC50 values in the following Table 1:
# (§2) Antitumor efficacy of the new Pt(IV) complexes according to the invention was studied on heavy to treat cancer lines of pancreas and prostate. XTT method was used. Results were evaluated in IC50 values and compared with reference Pt(II) complex Oxaliplatin and reference Pt (IV) complex Satraplatin.
# (§3) Fresh tumor cell lines were purchased from the Cell Bank to ensure their quality and activities. • a) Capan-2, pancreatic ductal adenocarcinoma, DSMZ, ACC-245 • b) PC-3, prostate carcinoma, ATCC® CRL1435™ Cultivation's Conditions of Tumor Cell Lines: Abbreviation of Used Compounds: • DMSO: dimethyl sulfoxide • PBS: phosphate buffered saline • XTT: 2,3-bis-(2-methoxy-4-nitro-5-sulphophenyl)-2H-tetrazolium-5-carboxanilide salt • PMS: N-methyl-dibenzopyrazinmethylsulfate • FBS: fetal bovine serum • NEAA: non-essential amino acids • L-glu: L-glutamine • DMEM: Dulbecco's Modified Eagle's Medium (SigmaAldrich) • PMS: phenazine methosulfate • Cultivation's conditions: 37° C., 5% CO2 • Growth medium: DMEM, 10% FBS, 2 mM L-glut., NEAA 100× XTT Working Procedure:
# (§4) Tested compounds were dissolved in DMSO and diluted by PBS to tested concentration range just before addition to cell lines in wells. PBS was used as a positive control, DMSO in final concentration 20% was used as a negative control. All concentrations of compounds were assayed in triplicates. Each determination was carried out twice and was blinded for experimenter.
# (§5) Testing was conducted on a 96-well plate. Dosage of tumor cells was about 2.5. 10^4 cells per well, dosage of growth medium was 100 μl per well. After 24 hours, the growth medium was suck off and 80 μl of fresh growth medium and 20 μl of solution with different concentration of the tested substance were added to wells. After 72 hours, the medium was suck off and 100 μl of a solution of Optimem reagent containing XTT and PMS were added to wells. After another 4 hours, the absorbance was measured at 450 nm (reference was at 630 nm). Results as IC50 were evaluated from the graph of normalized viability of cells plotted against the logarithm of the concentration of the substance.
# [2] = test system: cancer cell line PC-3 (prostate carcinoma, ATCC CRL-1435); assay: XTT test of antitumor efficacy in vitro, PC-3; assay type: cell-based; conditions: 72 hours exposure
# Excerpt: as §1, §2, §3, §4, §5
# [3] = test system: Capan-2, pancreas adenocarcinoma (DSMZ, ACC-245); assay: Antitumor efficacy in vivo, athymic mice model, subcutaneous Capan-2 tumor; parameters: species or system mice (Athymic Nude-FOXN-1^nu); conditions: for Average tumor weight 28 d / TWI % (tumor weight inhibition) / Average tumor volume 1 d / Average tumor volume 4 d / Average tumor volume 8 d / Average tumor volume 11 d / Average tumor volume 15 d / Average tumor volume 18 d / Average tumor volume 22 d / Average tumor volume 25 d / Average tumor volume 29 d / TVI % (tumor volume inhibition): Capan-2, oral dose 20 mg/kg; for Average tumor weight 28 d / TWI % (tumor weight inhibition): 28 d; for Average tumor volume 1 d: day 1; for Average tumor volume 4 d: day 4; for Average tumor volume 8 d: day 8; for Average tumor volume 11 d: day 11; for Average tumor volume 15 d: day 15; for Average tumor volume 18 d: day 18; for Average tumor volume 22 d: day 22; for Average tumor volume 25 d: day 25; for Average tumor volume 29 d: day 29; for TVI % (tumor volume inhibition): end of experiment; for anti-tumor efficacy (TWI %), times greater than for reference Satraplatin: both pancreatic tumors Capan-2 and PaTu8902
# Excerpt: (§6) Two new platinum (IV) complexes TU105 and TU106 from XTT tests were further studied in vivo on athymic mice model with two pancreatic tumors. The platinum (IV) complex Satraplatin and mother complex TU31 were used as reference compounds again. Two heavy-to-treat tumors of pancreas Capan-2 and PaTu8902 were cultivated and then subcutaneously administered to mice at a dose of 1.10^7 cells/mouse. After an increase in the subcutaneous tumors to a volume of about 0.2 cm^3, two doses of respective complexes 2×20 mg/kg were administered orally every 1 week. Control group of mice received no drug. Volume of tumors were continuously measured throughout the experiment. Three weeks after the second dose, mice were sacrificed, tumors removed, weighed and obtained data were evaluated in the form of tumor volume inhibition in % (TVI %) and tumor weight inhibition in % (TWI %), where: TVI %=100−[(TVexp/TVcont)×100] • TVexp=average volume of cured tumors in cm^3 • TVcont=average volume of control tumors in cm^3 TWI %=100−[(TWexp/TWcont)×100] • TWexp=average weight of cured tumors in g • TWcont=average weight of control tumors in g
# (§7) In vivo model: Athymic Nude-FOXN-1^nu, 6 mice per group (3 male+3 female)
# (§8) • a) Capan-2, pancreatic adenocarcinoma, ductal (DSMZ, ACC-245) • b) […], pancreatic adenocarcinoma, ductal, high metastatic, grade II (DSMZ, ACC-179) Used Pt (IV) Complexes: • a) the reference Pt (IV) complex Satraplatin, detailed specification, see example 4. • b) the mother Pt (IV) complex TU31, detailed specification, see example 4. • c) the new Pt (IV) complex TU105, detailed specification, see example 4. • d) the new Pt (IV) complex TU106, detailed specification, see example 4. Used Doses for Oral Administration:
# (§9) The homogenous bulk composition of the each tested Pt (IV) complex (20 mass. %) with Gelucire 50/13 (80 mass. %) was converted to water emulsion before oral administration to mice.
# (§10) Cultivation conditions of cancer cell lines: 37° C., 5% CO2, DMEM (Dulbecco's Modified Eagle's Medium, Sigma Aldrich), 10% FBS, (fetal bovine serum), 2 mM L-glutamin, non-essential aminoacids
# (§11) Transplantation of cancer cells: A dose 1×10^7 of cells was subcutaneously transplanted to each experimental mouse, then mice were subdivided into individual experimental groups.
# (§12) After an increase in the subcutaneous tumors to a volume of about 0.2 cm^3, two doses of respective complexes 2×20 mg/kg were administered orally every 1 week. The control group of mice received no drug. Volume of tumors were continuously measured throughout the experiment. Three weeks after the second dose, mice were sacrificed, tumors removed, weighed and obtained data were evaluated in the form of tumor volume inhibition in % (TVI %) and tumor weight inhibition in % (TWI %), where: TVI %=100−[(TVexp/TVcont)×100] • TVexp=average volume of cured tumors in cm^3 • TVcont=average volume of control tumors in cm^3 TWI %=100−[(TWexp/TWcont)×100] • TWexp=average weight of cured tumors in g • TWcont=average weight of control tumors in g Obtained Results: […]
# [4] = test system: PaTu8902, pancreas adenocarcinoma, metastatic, grade II (DSMZ, ACC-179); assay: Antitumor efficacy in vivo, athymic mice model, subcutaneous PaTu8902 tumor; parameters: species or system mice (Athymic Nude-FOXN-1^nu); conditions: PaTu8902, oral dose 20 mg/kg; for Average tumor weight 28 d / TWI % (tumor weight inhibition): 28 d; for Average volume of tumor 1 d: day 1; for Average volume of tumor 4 d: day 4; for Average volume of tumor 8 d: day 8; for Average volume of tumor 11 d: day 11; for Average volume of tumor 15 d: day 15; for Average volume of tumor 18 d: day 18; for Average volume of tumor 22 d: day 22; for Average volume of tumor 25 d: day 25; for Average volume of tumor 29 d: day 29; for TVI % (tumor volume inhibition): end of experiment
# Excerpt: as §6, §7, §8, §9, §10, §11, §12
SMILES,IC50 [1] [µM],IC50 [2] [µM],Average tumor weight 28 d [3] [g],TWI % (tumor weight inhibition) [3] [%],Average tumor volume 1 d [3] [cm^3],Average tumor volume 4 d [3] [cm^3],Average tumor volume 8 d [3] [cm^3],Average tumor volume 11 d [3] [cm^3],Average tumor volume 15 d [3] [cm^3],Average tumor volume 18 d [3] [cm^3],Average tumor volume 22 d [3] [cm^3],Average tumor volume 25 d [3] [cm^3],Average tumor volume 29 d [3] [cm^3],TVI % (tumor volume inhibition) [3] [%],Average tumor weight 28 d [4] [g],TWI % (tumor weight inhibition) [4] [%],Average volume of tumor 1 d [4] [cm^3],Average volume of tumor 4 d [4] [cm^3],Average volume of tumor 8 d [4] [cm^3],Average volume of tumor 11 d [4] [cm^3],further results
"N[C@@H]1CCCC[C@H]1N.O=C([O-])C(=O)[O-].[Pt+2] [Oxaliplatin, (1R,2R-1,2-cyclohexanediamine-N,N′) (ethanedioato-O,O′) platinum (II), reference compound]",> 100,55.7,,,,,,,,,,,,,,,,,,,
"CC(=O)[O][Pt]([NH2])([Cl])([Cl])([NH]C1CCCCC1)[O]C(C)=O [Satraplatin, cis-(ammine, cyclohexylamine)-trans-bis-acetate-cis-dichloride Pt(IV), reference compound]",> 30,10.2,0.711,10.3,0.21,0.23,0.30,0.39,0.47,0.56,0.66,0.77,0.90,10.0,7.245,11.5,0.21,0.50,0.99,1.94,Average volume of tumor 15 d [4]: 3.10 cm^3; Average volume of tumor 18 d [4]: 4.80 cm^3; Average volume of tumor 22 d [4]: 6.80 cm^3; Average volume of tumor 25 d [4]: 9.35 cm^3; Average volume of tumor 29 d [4]: 11.90 cm^3; TVI % (tumor volume inhibition) [4]: 12.8%
"[NH3+][Pt-2]([Cl])([NH2+]C12CC3CC(CC(C3)C1)C2)([O]C(=O)CCl)([O]C(=O)C12CC3CC(CC(C3)C1)C2)[O]C(=O)C12CC3CC(CC(C3)C1)C2 [TU105, cis-(ammine,1-adamantylamine)-trans-bis(1-adamantylcarboxylate)-cis-(chloride, monochloroacetate) Pt (IV)]",0.04,0.06,0.213,73.1,0.20,0.21,0.22,0.23,0.27,0.30,0.34,0.37,0.40,60.0,2.522,69.2,0.21,0.21,0.40,0.62,"anti-tumor efficacy (TWI %), times greater than for reference Satraplatin [3]: about 7 times; Average volume of tumor 15 d [4]: 1.06 cm^3; Average volume of tumor 18 d [4]: 1.65 cm^3; Average volume of tumor 22 d [4]: 2.46 cm^3; Average volume of tumor 25 d [4]: 3.40 cm^3; Average volume of tumor 29 d [4]: 4.35 cm^3; TVI % (tumor volume inhibition) [4]: 68.1%"
"N.NC12CC3CC(CC(C3)C1)C2.O=C([O-])C(F)(F)F.O=C([O-])C12CC3CC(CC(C3)C1)C2.O=C([O-])C12CC3CC(CC(C3)C1)C2.[Cl-].[Pt+4] [TU106, cis-(ammine,1-adamantylamine)-trans-bis(1-adamantylcarboxylate)-cis-(chloride, trifluoroacetate) Pt (IV)]",0.02,0.07,0.166,79.1,0.21,0.21,0.23,0.24,0.25,0.26,0.28,0.29,0.31,69.0,2.317,71.7,0.21,0.21,0.37,0.60,"anti-tumor efficacy (TWI %), times greater than for reference Satraplatin [3]: about 7 times; Average volume of tumor 15 d [4]: 1.01 cm^3; Average volume of tumor 18 d [4]: 1.60 cm^3; Average volume of tumor 22 d [4]: 2.35 cm^3; Average volume of tumor 25 d [4]: 3.27 cm^3; Average volume of tumor 29 d [4]: 4.20 cm^3; TVI % (tumor volume inhibition) [4]: 69.2%"
"[NH3+][Pt-2]([Cl])([NH2+]C12CC3CC(CC(C3)C1)C2)([O]C(=O)C12CC3CC(CC(C3)C1)C2)([O]C(=O)C12CC3CC(CC(C3)C1)C2)[O][N+](=O)[O-] [TU113, cis-(ammine,1-adamantylamine)-trans-bis(1-adamantylcarboxylate)-cis-(chloride, nitrate) Pt (IV)]",0.11,0.23,,,,,,,,,,,,,,,,,,,

# From US12351593B2, “Platinum IV complexes with substantially increased antitumor efficacy” (priority 2019, dated 2025)
